Key:
[1] = system: HEK293 cells; assay: Preliminary screening as DNA vectors, GFP transfection of HEK293 cells; assay type: cell-based; settings: HEK293 cells; lipid/DOPE liposome with 75 ng plasmid DNA (psin-EGFP-IRES-Puro); number of cells expressing GFP divided by total number of nuclei (Hoechst)
In short: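 Lipid + DOPE liposomes (NaOAc, pH 5.6) complexed w/ 75 ng psin-EGFP-IRES-Puro, 30 min RT; added to 3-5×10^4 HEK293/well, 37° C. Hoechst 0.2 μg/mL at 20-24 h, imaged after further 20-24 h. Efficiency = GFP+ cells / total nuclei.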

[2] = system: HEK293 cells; assay: Preliminary screening as mRNA vectors, EGFP mRNA transfection of HEK293 cells; assay type: cell-based; settings: HEK293 cells, 96-well plates, EGFP mRNA 50 ng per well; percentage of GFP fluorescent cells relative to total number of cells (Hoechst)
In short: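 Each well of HEK293 cells received 50 ng of EGFP mRNA. Efficiency was expressed as percent GFP-expressing cells over Hoechst-defined total cell number.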

Structure (SMILES) | Absolute DNA transfection efficiency in HEK293 cells [1] | Absolute mRNA transfection efficiency in HEK293 cells [2]
CCCCCCCCCCCCCCCCCCSc1nc(NCCN2CCCC2)nc(SCCCCCCCCC)n1 [Compound S9S18D3] | 13.9% | 35.8%
CCCCCCCCCCSc1nc(NCCCN2CCN(C)CC2)nc(SCCCCCCCCC)n1 [Compound S9S10D9] | 34.1% | 46.6%
CCCCCCCCCCCCCCCCNc1nc(NCCCCCCCCCCC)nc(NCCN2CCCC2)n1 [Compound N11N16D3] | 1.2% | 3.6%
CCCCCCCCNc1nc(NCCCCCCC)nc(NCCN2CCCC2)n1 [Compound N7N8D3] | 0.5% | 3.7%
CCCCCCCCCCCCCCCNc1nc(NCCCCCCCCCCCCC)nc(NCCCN2CCN(C)CC2)n1 [Compound N13N15D9] | 0.2% | 0.5%
CCCCCCCCCCCCN(CCCCCCCCCCCC)c1nc(NCC2CCN(C)CC2)nc(N(CCCCCCCCCCCC)CCCCCCCCCCCC)n1 [2N12^2N12D10] | 1.8% | 3.3%
CCCCCCCCCCCCCCCNc1nc(NCCCCCCCC)nc(NCCCN2CCOCC2)n1 [Compound N8N15D8] | 1.1% | 0.3%
CCCCCCCCCCCCNc1nc(NCCCCCCCCCCC)nc(NCCN2CCCC2)n1 [Compound N11N12D3] | 1.9% | 2.7%
CCCCCCCCCCCCCCCNc1nc(NCCCCCCCCCCCC)nc(NCCN2CCCCC2)n1 [Compound N12N15D4] | 1.4% | 1.3%
CCCCCCCCCCCCCCCCNc1nc(NCCCCCCCCCCCCC)nc(NCCN2CCOCC2)n1 [Compound N13N16D2] | 0.0% | 1.4%
CCCCCCCCCCCCCCCCNc1nc(NCCCCCCCCC)nc(NCCN2CCCCC2)n1 [Compound N9N16D4] | 0.8% | 4.5%
CCCCCCCCCCCCCCSc1nc(NCC2CCN(C)CC2)nc(SCCCCCCCCCCC)n1 [Compound S11S14D10] | 58.1% | 38.5%
CCCCCCCCCCCCCCSc1nc(NCCCN2CCN(C)CC2)nc(SCCCCCCCCCC)n1 [Compound S10S14D9] | 3.9% | 5.7%
CCCCCCCCCCCCCCCCCCNc1nc(NCCCCCCCCCCCCCCC)nc(NCCN2CCN(C)CC2)n1 [Compound N15N18D5] | 0.0% | 0.0%
CCCCCCCCCCCCCCCNc1nc(NCCN2CCCC2)nc(N(CCCCCCCCCCCC)CCCCCCCCCCCC)n1 [N15^2N12D3] | 2.4% | 0.0%
CCCCCCCCCCCCCNc1nc(NCCCCCCCCCCCCC)nc(NCCN2CCCC2)n1 [Compound N13N13D3] | 0.7% | 3.5%
CCCCCCCCCCCCNc1nc(NCCCCCCCCCCC)nc(NCCCN2CCOCC2)n1 [Compound N11N12D8] | 0.0% | 2.8%
CCCCCCCCCCCCCCCCSc1nc(NCC2CCN(C)CC2)nc(SCCCCCCCCCCCCCCC)n1 [Compound S15S16D10] | 0.6% | 0.6%
CCCCCCCCCCCNc1nc(NCCCCCCCCC)nc(NCCN2CCCCC2)n1 [Compound N9N11D4] | 0.0% | 0.0%
CCCCCCCCCCCCCCCSc1nc(NCCCN(C)C)nc(SCCCCCCCCCCCC)n1 [Compound S12S15D6] | 4.4% | 0.0%
CCCCCCCCCCSc1nc(NCCN(CC)CC)nc(SCCCCCCCCCC)n1 [Compound S10S10D7] | 7.2% | 2.0%
CCCCCCCCCCCCCCCCCCSc1nc(NCCCN2CCOCC2)nc(SCCCCCCCC)n1 [Compound S8S18D8] | 18.7% | 4.2%
CCCCCCCCCCCNc1nc(NCCCCCCCC)nc(NCCCN2CCN(C)CC2)n1 [Compound N8N11D9] | 0.0% | 0.0%
CCCCCCCCCCCCCCCCCCNc1nc(NCCCCCCCCCCCC)nc(NCCN2CCN(C)CC2)n1 [Compound N12N18D5] | 0.0% | 1.9%

Structure (SMILES) | Absolute DNA transfection efficiency in HEK293 cells [1] | Absolute mRNA transfection efficiency in HEK293 cells [2]
CCCCCCCCCCCNc1nc(NCCCCCCCC)nc(NCCN2CCOCC2)n1 [Compound N8N11D2] | 0.0% | 0.0%
CCCCCCCCCCCCCNc1nc(NCCCCCC)nc(NCCN(CC)CC)n1 [Compound N6N13D7] | 0.1% | 0.9%
CCCCCCCCCCCCCCCCCCNc1nc(NCCCN2CCN(C)CC2)nc(N(CCCCCCCCCCCC)CCCCCCCCCCCC)n1 [N18^2N12D9] | 0.6% | 0.6%
CCCCCCCCCCCCCNc1nc(NCCCCCC)nc(NCCN2CCCCC2)n1 [Compound N6N13D4] | 0.0% | 0.6%
CCCCCCCCCCCCCCCCSc1nc(NCCN2CCCCC2)nc(SCCCCCCCC)n1 [Compound S8S16D4] | 10.2% | 2.1%
CCCCCCCCCCCCCCCCSc1nc(NCCCN(C)C)nc(SCCCCCCCCCCCC)n1 [Compound S12S16D6] | 2.7% | 1.2%
CCCCCCCCCCCCCCCCCCSc1nc(NCCCN2CCN(C)CC2)nc(SCCCCCCCCCCC)n1 [Compound S11S18D9] | 0.9% | 0.3%
CCCCCCCCCCCCCCCCSc1nc(NCCN2CCN(C)CC2)nc(SCCCCCCCCCCCCCCC)n1 [Compound S15S16D5] | 0.2% | 0.2%
CCCCCCCCCCCCCCCSc1nc(NCCN2CCCCC2)nc(SCCCCCCCCCCC)n1 [Compound S11S15D4] | 5.3% | 0.9%
CCCCCCCCCCCCCCCCCCSc1nc(NCCCN(C)C)nc(SCCCCCCCCCCCCCC)n1 [Compound S14S18D6] | 1.2% | 0.2%
CCCCCCCCCCCCCNc1nc(NCCCCCC)nc(NCCN2CCN(C)CC2)n1 [Compound N6N13D5] | 0.0% | 0.0%
CCCCCCCCCCCCCNc1nc(NCCCCCCCCCCC)nc(NCCCN2CCOCC2)n1 [Compound N11N13D8] | 0.0% | 0.6%
CCCCCCCCCCCCCCCCNc1nc(NCCCCCCCCCCCCC)nc(NCCN2CCCCC2)n1 [Compound N13N16D4] | 1.0% | 4.0%
CCCCCCCCCCCCN(CCCCCCCCCCCC)c1nc(NCCCCCCCC)nc(NCCN(C)C)n1 [N8^2N12D1] | 0.0% | 0.2%
CCCCCCCCCCCCCCCCCCSc1nc(NCC2CCN(C)CC2)nc(SCCCCCCCCCCCC)n1 [Compound S12S18D10] | 7.5% | 7.7%
CCCCCCCCCCCCCCSc1nc(NCCN2CCCC2)nc(SCCCCCCCCCC)n1 [Compound S10S14D3] | 7.9% | 0.6%
CCCCCCCCCCCCCCCCNc1nc(NCCCCCCCCC)nc(NCCCN2CCOCC2)n1 [Compound N9N16D8] | 1.8% | 0.0%
CCCCCCCCCCCCCCCCSc1nc(NCCCN2CCN(C)CC2)nc(SCCCCCCCCCCCC)n1 [Compound S12S16D9] | 0.5% | 0.0%
CCCCCCCCCCCCCCCCNc1nc(NCCCCCCCCCCC)nc(NCCCN(C)C)n1 [Compound N11N16D6] | 0.2% | 1.4%
CCCCCCCCCCCCCCCCCCNc1nc(NCCCCCCCCCCC)nc(NCCN2CCN(C)CC2)n1 [Compound N11N18D5] | 1.4% | 0.0%
CCCCCCCCCCCNc1nc(NCCCCCCCCCCC)nc(NCCN(C)C)n1 [Compound N11N11D1] | 0.9% | 4.3%
CCCCCCCNc1nc(NCCCCCCC)nc(NCCCN(C)C)n1 [Compound N7N7D6] | 0.0% | 0.0%
CCCCCCCCCCCCCNc1nc(NCCCCCCCCC)nc(NCCN2CCN(C)CC2)n1 [Compound N9N13D5] | 0.3% | 0.2%

Source: US20230123334A1, “AMINO LIPID COMPOUND, PREPARATION METHOD THEREFOR, AND APPLICATION THEREOF” (SHENZHEN SHENXIN BIOTECHNOLOGY CO., LTD., priority 2020, published 2023)
